Data on 1 molecule can be found in paper PMC6620786 (Molecular pharmaceutics, 2019).

pEC50: −log10 of the molar value.

In test [1] the target is ABCB1 (Homo sapiens, UniProt P08183). Description: vanadate-sensitive ATPase stimulation in insect cell membranes expressing ABCB1. The format is biochemical.
The target of test [2] is T1, ABCG2 (Homo sapiens, UniProt Q9UNQ0).
T1 sequence (Q9UNQ0 1-655): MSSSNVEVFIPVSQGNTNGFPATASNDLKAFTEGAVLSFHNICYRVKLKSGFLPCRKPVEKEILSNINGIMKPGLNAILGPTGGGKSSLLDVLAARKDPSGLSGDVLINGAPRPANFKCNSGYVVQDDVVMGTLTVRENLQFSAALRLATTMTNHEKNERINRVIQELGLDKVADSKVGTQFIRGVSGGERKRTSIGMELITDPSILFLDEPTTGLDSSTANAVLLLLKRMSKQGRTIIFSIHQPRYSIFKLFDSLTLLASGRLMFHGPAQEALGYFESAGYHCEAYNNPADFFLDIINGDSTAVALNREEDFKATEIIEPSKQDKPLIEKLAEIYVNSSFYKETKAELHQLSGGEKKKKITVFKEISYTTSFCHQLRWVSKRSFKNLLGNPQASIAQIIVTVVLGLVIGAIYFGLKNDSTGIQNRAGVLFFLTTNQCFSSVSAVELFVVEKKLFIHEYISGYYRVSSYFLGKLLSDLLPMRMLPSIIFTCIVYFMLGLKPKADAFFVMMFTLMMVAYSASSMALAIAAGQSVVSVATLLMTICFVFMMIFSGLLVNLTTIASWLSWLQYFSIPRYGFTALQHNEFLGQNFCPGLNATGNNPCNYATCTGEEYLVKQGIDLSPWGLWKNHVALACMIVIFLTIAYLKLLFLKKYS
Description: vanadate-sensitive ATPase stimulation in insect cell membranes expressing ABCG2. The class given is biochemical.

Chain of ABCB1 (P08183 whole entry): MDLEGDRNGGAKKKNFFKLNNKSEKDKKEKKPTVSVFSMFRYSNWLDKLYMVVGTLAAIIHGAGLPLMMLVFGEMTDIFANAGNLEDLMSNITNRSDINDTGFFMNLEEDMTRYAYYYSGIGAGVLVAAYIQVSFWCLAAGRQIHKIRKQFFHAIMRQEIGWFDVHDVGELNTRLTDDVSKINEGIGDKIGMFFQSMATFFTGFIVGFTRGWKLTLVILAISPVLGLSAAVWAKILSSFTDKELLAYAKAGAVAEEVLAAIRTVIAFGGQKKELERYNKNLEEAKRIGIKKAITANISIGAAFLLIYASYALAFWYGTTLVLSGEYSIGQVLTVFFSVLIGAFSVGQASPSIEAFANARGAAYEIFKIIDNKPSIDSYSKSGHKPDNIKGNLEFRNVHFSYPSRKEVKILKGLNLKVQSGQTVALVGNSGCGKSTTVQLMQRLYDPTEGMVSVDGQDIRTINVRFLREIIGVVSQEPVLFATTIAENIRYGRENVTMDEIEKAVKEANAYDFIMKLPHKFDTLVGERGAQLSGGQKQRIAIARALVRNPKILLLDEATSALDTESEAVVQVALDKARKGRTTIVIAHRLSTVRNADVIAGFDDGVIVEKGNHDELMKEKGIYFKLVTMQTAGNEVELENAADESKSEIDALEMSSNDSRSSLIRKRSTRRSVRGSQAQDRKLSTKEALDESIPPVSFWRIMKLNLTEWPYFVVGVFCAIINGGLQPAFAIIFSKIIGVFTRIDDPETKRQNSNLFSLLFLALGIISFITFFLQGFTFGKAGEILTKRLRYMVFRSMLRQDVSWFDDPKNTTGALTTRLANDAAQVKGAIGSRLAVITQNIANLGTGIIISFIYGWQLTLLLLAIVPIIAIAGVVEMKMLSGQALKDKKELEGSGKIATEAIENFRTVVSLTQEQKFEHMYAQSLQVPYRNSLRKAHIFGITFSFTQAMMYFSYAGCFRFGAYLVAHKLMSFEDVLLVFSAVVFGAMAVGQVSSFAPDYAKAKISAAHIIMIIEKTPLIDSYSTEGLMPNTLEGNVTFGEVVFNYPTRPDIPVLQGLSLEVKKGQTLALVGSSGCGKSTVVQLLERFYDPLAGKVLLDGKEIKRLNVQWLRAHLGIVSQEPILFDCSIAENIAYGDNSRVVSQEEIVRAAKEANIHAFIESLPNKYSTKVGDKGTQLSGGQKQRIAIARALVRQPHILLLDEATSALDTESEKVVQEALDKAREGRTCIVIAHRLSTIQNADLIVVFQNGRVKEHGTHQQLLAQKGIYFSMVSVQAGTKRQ

For `Cn1cc(-c2cc3c(N4CCN(c5ncc([C@@](C)(N)c6ccc(F)cc6)cn5)CC4)ncnn3c2)cn1` [avapritinib], the pEC50 was approximately 5.30 in test [1] and approximately 6.70 in test [2].
